Experiment [1] is described as follows: Competitive antagonist at alpha-adrenergic receptor in New Zealand rabbit aorta assessed as methoxamine-induced contraction after 45 mins. It counts as tissue-based, Oryctolagus cuniculus.
Experiment [2] concerns the target Adrenergic receptor alpha. Nature of the experiment: Antagonist at postsynaptic alpha-adrenergic receptor in rat vas deferens. It counts as tissue-based.

One may read the pA2 as a measure of antagonist potency on a negative log scale. Turning to `COc1cccc(OC)c1OCCNC[C@@H]1COc2ccccc2O1.Cl`, in experiment [1], the pA2 came to 7.35. In the case of `COc1cccc(OC)c1OCCNC[C@H]1COc2ccccc2O1.Cl`, the pA2 in experiment [1] was determined as 9.02. Take `COc1cccc(OC)c1OCCNCC1COc2ccccc2O1` (racemic): the pA2 was 8.83 in experiment [1] and 9.8 in experiment [2].
